Test [1] concerns the target T1, Serine/threonine-protein kinase TAO3 (Homo sapiens) (UniProt Q9H2K8).
T1 sequence (whole entry): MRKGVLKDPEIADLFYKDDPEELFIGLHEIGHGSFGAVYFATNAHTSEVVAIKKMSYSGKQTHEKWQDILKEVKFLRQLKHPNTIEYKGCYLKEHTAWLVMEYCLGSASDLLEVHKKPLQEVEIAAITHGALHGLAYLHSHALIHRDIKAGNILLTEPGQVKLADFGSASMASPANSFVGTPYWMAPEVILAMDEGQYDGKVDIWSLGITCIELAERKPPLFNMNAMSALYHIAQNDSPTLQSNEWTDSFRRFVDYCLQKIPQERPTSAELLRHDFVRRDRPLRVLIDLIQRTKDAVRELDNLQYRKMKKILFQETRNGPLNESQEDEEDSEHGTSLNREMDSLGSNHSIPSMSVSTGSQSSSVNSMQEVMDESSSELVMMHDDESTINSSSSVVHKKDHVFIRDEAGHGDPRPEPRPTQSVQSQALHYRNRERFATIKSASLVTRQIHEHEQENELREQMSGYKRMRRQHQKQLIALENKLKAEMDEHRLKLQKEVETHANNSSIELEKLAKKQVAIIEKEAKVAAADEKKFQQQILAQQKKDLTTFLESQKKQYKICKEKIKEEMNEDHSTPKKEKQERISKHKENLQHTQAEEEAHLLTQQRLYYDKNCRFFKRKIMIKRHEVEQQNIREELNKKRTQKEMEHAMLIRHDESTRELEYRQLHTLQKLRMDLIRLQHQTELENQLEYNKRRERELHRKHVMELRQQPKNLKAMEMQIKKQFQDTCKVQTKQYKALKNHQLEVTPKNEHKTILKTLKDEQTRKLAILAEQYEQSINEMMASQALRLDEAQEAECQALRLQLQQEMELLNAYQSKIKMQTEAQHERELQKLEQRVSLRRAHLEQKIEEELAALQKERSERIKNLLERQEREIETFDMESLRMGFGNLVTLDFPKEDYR
Description: Inhibition of TAO3 Lys2 labeling site in human Huh-7 cells at 1 uM by KiNativ Profiling analysis relative to control. Format: cell-based.

Test [2] addresses T2, Mitogen-activated protein kinase kinase kinase 15 (Homo sapiens) (UniProt Q6ZN16).
T2 sequence (whole entry): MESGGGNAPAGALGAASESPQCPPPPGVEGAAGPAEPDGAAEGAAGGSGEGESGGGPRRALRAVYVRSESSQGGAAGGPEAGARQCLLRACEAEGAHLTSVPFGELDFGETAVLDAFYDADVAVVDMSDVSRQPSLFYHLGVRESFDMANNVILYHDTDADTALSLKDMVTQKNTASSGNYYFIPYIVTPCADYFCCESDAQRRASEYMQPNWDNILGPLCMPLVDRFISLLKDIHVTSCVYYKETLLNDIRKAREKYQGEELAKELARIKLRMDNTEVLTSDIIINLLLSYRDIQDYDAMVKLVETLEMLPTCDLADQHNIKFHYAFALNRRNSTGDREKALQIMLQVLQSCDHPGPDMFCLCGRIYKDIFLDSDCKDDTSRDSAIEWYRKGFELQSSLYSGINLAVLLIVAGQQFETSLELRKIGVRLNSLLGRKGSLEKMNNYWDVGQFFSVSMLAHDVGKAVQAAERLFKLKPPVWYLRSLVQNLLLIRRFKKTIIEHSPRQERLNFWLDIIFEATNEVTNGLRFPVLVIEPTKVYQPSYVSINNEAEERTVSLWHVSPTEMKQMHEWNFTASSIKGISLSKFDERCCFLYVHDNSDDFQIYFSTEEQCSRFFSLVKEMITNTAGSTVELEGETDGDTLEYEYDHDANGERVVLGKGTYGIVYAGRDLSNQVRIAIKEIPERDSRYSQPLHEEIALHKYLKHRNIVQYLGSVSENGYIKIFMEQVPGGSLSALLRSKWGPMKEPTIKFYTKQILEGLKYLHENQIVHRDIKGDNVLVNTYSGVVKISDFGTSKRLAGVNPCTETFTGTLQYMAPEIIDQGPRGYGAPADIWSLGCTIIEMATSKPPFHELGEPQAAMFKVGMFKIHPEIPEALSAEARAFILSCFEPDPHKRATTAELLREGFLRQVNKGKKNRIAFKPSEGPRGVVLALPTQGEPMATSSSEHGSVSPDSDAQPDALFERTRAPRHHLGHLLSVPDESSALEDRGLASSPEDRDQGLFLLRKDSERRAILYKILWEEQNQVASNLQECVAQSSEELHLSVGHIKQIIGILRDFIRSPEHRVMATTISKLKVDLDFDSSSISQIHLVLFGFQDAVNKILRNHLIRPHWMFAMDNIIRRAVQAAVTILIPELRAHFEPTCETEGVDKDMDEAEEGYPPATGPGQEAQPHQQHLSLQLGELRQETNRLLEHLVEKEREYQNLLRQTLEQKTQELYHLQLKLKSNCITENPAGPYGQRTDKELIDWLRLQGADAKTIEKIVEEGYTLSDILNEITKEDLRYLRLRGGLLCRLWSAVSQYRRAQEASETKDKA
Description: Inhibition of MAP3K15 Lys1 labeling site harbouring IAIKEIPERDSR in human A-375 cells at 5 uM by KiNativ Profiling analysis relative to control. Format: cell-based.

The term inhibition denotes the change of the read-out against control, counted positive when it falls. As for `CNc1cc(Oc2cc(C(=O)Nc3cc(N4CCN(C)CC4)cc(C(F)(F)F)c3)ccc2C)ncn1`, the inhibition in test [1] came to 0.4%.
For the compound `CCN1CCN(Cc2ccc(NC(=O)c3ccc(C)c(Oc4ccnc5[nH]ccc45)c3)cc2C(F)(F)F)CC1`, in test [2], the inhibition is -3.2%.

These data come from ChEMBL document CHEMBL5696442, “Discovery of type II inhibitors of TGFβ-activated kinase 1 (TAK1) and mitogen-activated protein kinase kinase kinase kinase 2 (MAP4K2)” (J Med Chem, 2015).
